The subject of the series is rodent carcinogenicity bioassays, tumor incidence. The series can be described thus: CCRIS carcinogenicity studies. The following applies: Dose: 0, Dose: 0. The essentials: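 Archive of carcinogenicity, mutagenicity, tumor promotion and tumor inhibition results drawn from journals, NCI reports and other sources, expert-reviewed; covers 1985-2011 and is no longer updated.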

Each structure is given as a SMILES string. The source made the active and inactive calls. How the calls were made is not given here.

Take `c1ccc(C2CO2)cc1` (stereo not given): the carcinogen call is “active; positive” (Species: MOUSE, Strain/Sex: B6C3F1/FEMALE, Route: GAVAGE, 375, 750 MG/KG IN CORN OIL 3 D/WK FOR UP TO 104 WK (STUDY DURATION: 24 MO), 375, 750 MG/KG IN CORN OIL 3 D/WK FOR UP TO 104 WK (STUDY DURATION: 24 MO), Tumor Site: Type of Lesion: FORESTOMACH: PAPILLOMA, CARCINOMA); “active; positive” (Species: MOUSE, Strain/Sex: B6C3F1/MALE, Route: GAVAGE, 375, 750 MG/KG IN CORN OIL 3 D/WK FOR UP TO 104 WK (STUDY DURATION: 24 MO), 375, 750 MG/KG IN CORN OIL 3 D/WK FOR UP TO 104 WK (STUDY DURATION: 24 MO), Tumor Site: Type of Lesion: LIVER: CARCINOMA OR ADENOMA, FORESTOMACH: PAPILLOMA, CARCINOMA); “active; positive” (Species: RAT, Strain/Sex: BDIV/FEMALE, Route: GAVAGE, 100-150 MG/KG IN OLIVE OIL 1/WK FOR 96 WK ADMINISTERED TO OFFSPRING OF FEMALE RATS GIVEN 200 MG/KG ONCE ON DAY 17 OF, Tumor Site: Type of Lesion: FORESTOMACH: CARCINOMA IN SITU, CARCINOMA); “inactive; negative” (Species: RAT, Strain/Sex: BDIV/FEMALE, Route: GAVAGE, 200 MG/KG ONCE IN OLIVE OIL ON DAY 17 OF PREGNANCY (STUDY DURATION: 120 WK)); “active; positive” (Species: RAT, Strain/Sex: BDIV/MALE, Route: GAVAGE, 100-150 MG/KG IN OLIVE OIL 1/WK FOR 96 WK ADMINISTERED TO OFFSPRING OF FEMALE RATS GIVEN 200 MG/KG ONCE ON DAY 17 OF, Tumor Site: Type of Lesion: FORESTOMACH: PAPILLOMA, CARCINOMA IN SITU, CARCINOMA); “active; positive” (Species: RAT, Strain/Sex: F344/FEMALE, Route: GAVAGE, 275, 550 MG/KG IN CORN OIL 3 D/WK FOR 104 WK (STUDY DURATION: 24 MO), 275, 550 MG/KG IN CORN OIL 3 D/WK FOR 104 WK (STUDY DURATION: 24 MO), Tumor Site: Type of Lesion: FORESTOMACH: PAPILLOMA, SQUAMOUS CELL CARCINOMA). The carcinogen call (Species: RAT, Strain/Sex: F344/MALE, Route: GAVAGE, 275, 550 MG/KG IN CORN OIL 3 D/WK FOR 104 WK (STUDY DURATION: 24 MO), 275, 550 MG/KG IN CORN OIL 3 D/WK FOR 104 WK (STUDY DURATION: 24 MO), Tumor Site: Type of Lesion: FORESTOMACH: PAPILLOMA, SQUAMOUS CELL CARCINOMA) is “active; positive”; the carcinogen call (Species: RAT, Strain/Sex: SPRAGUE-DAWLEY/FEMALE, Route: GAVAGE, 50, 250 MG/KG BW IN OLIVE OIL 1/D 4-5 D/WK FOR 52 WK (STUDY DURATION: LIFETIME), 50, 250 MG/KG BW IN OLIVE OIL 1/D 4-5 D/WK FOR 52 WK (STUDY DURATION: LIFETIME), Tumor Site: Type of Lesion: [BRAIN WAS ONLY SITE EVALUATED]) is “inactive; negative”; the carcinogen call (Species: RAT, Strain/Sex: SPRAGUE-DAWLEY/FEMALE, Route: INTRAGASTRIC, 50, 250 MG/KG IN OLIVE OIL 1/D, 4-5 D/WK FOR 52 WK (STUDY DURATION: LIFESPAN, 50, 250 MG/KG IN OLIVE OIL 1/D, 4-5 D/WK FOR 52 WK (STUDY DURATION: LIFESPAN, Tumor Site: Type of Lesion: FORESTOMACH: PAPILLOMA OR ACANTHOMA, SQUAMOUS CELL CARCINOMA) was “active; positive”; the carcinogen call (Species: RAT, Strain/Sex: SPRAGUE-DAWLEY/MALE, Route: GAVAGE, 50, 250 MG/KG BW IN OLIVE OIL 1/D 4-5 D/WK FOR 52 WK (STUDY DURATION: LIFETIME), 50, 250 MG/KG BW IN OLIVE OIL 1/D 4-5 D/WK FOR 52 WK (STUDY DURATION: LIFETIME), Tumor Site: Type of Lesion: [BRAIN WAS ONLY SITE EVALUATED]) was “inactive; negative”; the carcinogen call (Species: RAT, Strain/Sex: SPRAGUE-DAWLEY/MALE, Route: INTRAGASTRIC, 50, 250 MG/KG IN OLIVE OIL 1/D, 4-5 D/WK FOR 52 WK (STUDY DURATION: LIFESPAN, 50, 250 MG/KG IN OLIVE OIL 1/D, 4-5 D/WK FOR 52 WK (STUDY DURATION: LIFESPAN, Tumor Site: Type of Lesion: FORESTOMACH: PAPILLOMA OR ACANTHOMA, SQUAMOUS CELL CARCINOMA) is “active; positive”.
Turning to `OCC(Br)CBr` (stereo not given), the carcinogen call is “active; positive” (Species: MOUSE, Strain/Sex: B6C3F1/FEMALE, Route: DERMAL, 188, 375 MG/KG IN ETHANOL APPLIED TO SUBSCAPULAR SKIN 5 D/WK FOR 39-42 WK (STUDY DURATION: 42 WK), 188, 375 MG/KG IN ETHANOL APPLIED TO SUBSCAPULAR SKIN 5 D/WK FOR 39-42 WK (STUDY DURATION: 42 WK), Tumor Site: Type of Lesion: SKIN: SQUAMOUS CELL PAPILLOMA, FORESTOMACH: SQUAMOUS CELL PAPILLOMA, SQUAMOUS CELL CARCINOMA); “active; positive” (Species: MOUSE, Strain/Sex: B6C3F1/MALE, Route: DERMAL, 188, 375 MG/KG IN ETHANOL APPLIED TO SUBSCAPULAR SKIN 5 D/WK FOR 36-39 WK (STUDY DURATION: 42 WK), 188, 375 MG/KG IN ETHANOL APPLIED TO SUBSCAPULAR SKIN 5 D/WK FOR 36-39 WK (STUDY DURATION: 42 WK), Tumor Site: Type of Lesion: SKIN: SQUAMOUS CELL PAPILLOMA, FORESTOMACH: SQUAMOUS CELL PAPILLOMA, LUNG: ALVEOLAR/BRONCHIOLAR ADENOMA, LIVER: HEPATOCE, Tumor Site: Type of Lesion: SKIN: SQUAMOUS CELL PAPILLOMA, FORESTOMACH: SQUAMOUS CELL PAPILLOMA, LUNG: ALVEOLAR/BRONCHIOLAR ADENOMA, LIVER: HEPATOCE); “active; positive” (Species: RAT, Strain/Sex: F344/FEMALE, Route: DERMAL, 188, 375 MG/KG IN ETHANOL APPLIED TO SUBSCAPULAR SKIN 5 D/WK FOR 52-55 WK (STUDY DURATION: 56 WK), 188, 375 MG/KG IN ETHANOL APPLIED TO SUBSCAPULAR SKIN 5 D/WK FOR 52-55 WK (STUDY DURATION: 56 WK), Tumor Site: Type of Lesion: SKIN: SQUAMOUS CELL PAPILLOMA OR CARCINOMA, BASAL CELL TUMOR, KERATOACANTHOMA, ORAL MUCOSA: SQUAMOUS CELL PAPILLOMA, SQU); “active; positive” (Species: RAT, Strain/Sex: F344/MALE, Route: DERMAL, 188, 375 MG/KG IN ETHANOL APPLIED TO SUBSCAPULAR SKIN 5 D/WK FOR 48-51 WK (STUDY DURATION: 56 WK), 188, 375 MG/KG IN ETHANOL APPLIED TO SUBSCAPULAR SKIN 5 D/WK FOR 48-51 WK (STUDY DURATION: 56 WK), Tumor Site: Type of Lesion: SKIN: SQUAMOUS CELL PAPILLOMA OR CARCINOMA, BASAL CELL TUMOR, SEBACEOUS ADENOMA, KERATOACANTHOMA, ORAL MUCOSA: SQUAMOUS).

The record behind these values is PubChem BioAssay AID1259411 (Chemical Carcinogenesis Research Information System (CCRIS), 2018).
